Key:
Assay type in all cases: in vivo
[1] = test system: Echinochloa oryzacola Vasing.; assay: Test Example 2: herbicidal activity, application during weed generation in submerged conditions (symbol A); conditions: Table 23; application herbicide amount 320 g/ha; grade 0-5 by criteria of Test Example 1
Procedure, shortened: (§1)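 Scoring of herbicidal effect took place 3 weeks after treatment, using the criteria of the earlier test. Treatment was water-surface application of diluted emulsifiable compound at a set dose. Plants were at one- to two-leaf stage in submerged alluvial soil (4 cm depth), greenhouse 25-30° C.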

Scirpus juncoides = assay: Test Example 2: herbicidal activity, application during weed generation in submerged conditions (symbol B); conditions: Table 23; application herbicide amount 320 g/ha; grade 0-5 by criteria of Test Example 1
Procedure, shortened: as §1

[2] = test system: directly sowed rice plant; assay: Test Example 3: effect on crop by foliage application, Wagner pot (symbol b); conditions: application herbicide amount 320 g/ha
Procedure, shortened: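 Greenhouse culture at 25–30 °C of seeded rice, Cyperus difformis, Leptochloa chinensis and Echinochloa crus-galli var. crus-galli, in alluvial soil held under 0.1–0.5 cm of water in a Wagner pot.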

Avena fatua = assay: Test Example 4: herbicidal effect by soil treatment (symbol I); conditions: application herbicide amount 320 g/ha
Procedure, shortened: (§2)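 Seeds were sown in sterilized diluvial soil, covered with about 1.5 cm of soil, and the soil surface was sprayed with a water-diluted emulsion of the compound at a predetermined rate. Plants grew in a greenhouse at 25° C. to 30° C.; effects were scored visually 3 weeks after application.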

Lolium multiflorum Lam. = assay: Test Example 4: herbicidal effect by soil treatment (symbol K); conditions: application herbicide amount 320 g/ha
Procedure, shortened: as §2

Apera spica-venti = assay: Test Example 4: herbicidal effect by soil treatment (symbol L); conditions: application herbicide amount 320 g/ha
Procedure, shortened: as §2

Amaranthus retroflexus = assay: Test Example 4: herbicidal effect by soil treatment (symbol N); conditions: application herbicide amount 320 g/ha
Procedure, shortened: as §2

soybean = assay: Test Example 4: effect on crop by soil treatment (symbol d); conditions: application herbicide amount 320 g/ha
Procedure, shortened: (§3)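 Seeds were sown in spots on sterilized diluvial soil in a plastic box and covered with about 1.5 cm of soil. Plants were then grown in a greenhouse at 25° C. to 30° C.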

rice = assay: Test Example 4: effect on crop by soil treatment (symbol b); conditions: application herbicide amount 320 g/ha
Procedure, shortened: as §3

wheat [3] = assay: Test Example 4: effect on crop by soil treatment (symbol e); conditions: application herbicide amount 320 g/ha
Procedure, shortened: as §3

rapeseed [4] = assay: Test Example 4: effect on crop by soil treatment (symbol g); conditions: application herbicide amount 320 g/ha
Procedure, shortened: as §3

Abutilon theophrasti = assay: Test Example 5: herbicidal effect by foliage application, plastic box (symbol M); conditions: 320 g/ha, 3 weeks after application
Procedure, shortened: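 After sowing into sterilized diluvial soil and growing two weeks under glass at 25° C. to 30° C., seedlings receive a uniform foliar spray of diluted emulsion. Damage is judged visually three weeks on.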

rice plant = assay: Test Example 5: effect on crop by foliage application, plastic box (symbol b); conditions: 320 g/ha, 3 weeks after application
Procedure, shortened: (§4)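 Greenhouse test at 25° C. to 30° C. Seeds of crops and weeds were spot-sown in boxes of sterilized diluvial soil under roughly 1.5 cm soil cover, then grown for foliage treatment.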

wheat [5] = assay: Test Example 5: effect on crop by foliage application, plastic box (symbol e); conditions: 320 g/ha, 3 weeks after application
Procedure, shortened: as §4

beet = assay: Test Example 5: effect on crop by foliage application, plastic box (symbol f); conditions: 320 g/ha, 3 weeks after application
Procedure, shortened: as §4

rapeseed [6] = assay: Test Example 5: effect on crop by foliage application, plastic box (symbol g); conditions: 320 g/ha, 3 weeks after application
Procedure, shortened: as §4

CON=C(C)CC1CC(O)=C(c2c(C)cc(C)cc2SC)C1=O (centres unmarked) [6-075]
Herbicidal effect grade, A: Echinochloa oryzacola Vasing. [1]: 1 (Herbicidal ratio of 5% or higher and lower than 20%)
Herbicidal effect grade, B: Scirpus juncoides (Scirpus juncoides): 0 (Herbicidal ratio of 5% or lower (almost no effect))
effect on crop b (directly sowed rice plant), grade 0-5 [2]: 4 (Herbicidal ratio of 70% or higher and lower than 90%)
I: Avena fatua, herbicidal effect grade (Avena fatua): 0 (Herbicidal ratio of 5% or lower (almost no effect))
K: Lolium multiflorum Lam., herbicidal effect grade (Lolium multiflorum Lam.): 4 (Herbicidal ratio of 70% or higher and lower than 90%)
L: Apera spica-venti, herbicidal effect grade (Apera spica-venti): 3 (Herbicidal ratio of 40% or higher and lower than 70%)
N: Amaranthus retroflexus, herbicidal effect grade (Amaranthus retroflexus): 0 (Herbicidal ratio of 5% or lower (almost no effect))
d: soybean, effect on crop grade (soybean): 0 (Herbicidal ratio of 5% or lower (almost no effect))
b: directly sowed rice plant, effect on crop grade (rice): 0 (Herbicidal ratio of 5% or lower (almost no effect))
e: wheat, effect on crop grade (wheat [3]): 0 (Herbicidal ratio of 5% or lower (almost no effect))
g: rapeseed, effect on crop grade (rapeseed [4]): 0 (Herbicidal ratio of 5% or lower (almost no effect))
M: Abutilon theophrasti, herbicidal effect (criteria of Test Example 1) (Abutilon theophrasti): 0 (Herbicidal ratio of 5% or lower (almost no effect))
b: directly sowed rice plant, effect on crop (criteria of Test Example 1) (rice plant): 4 (Herbicidal ratio of 70% or higher and lower than 90%)
e: wheat, effect on crop (criteria of Test Example 1) (wheat [5]): 2 (Herbicidal ratio of 20% or higher and lower than 40%)
f: beet, effect on crop (criteria of Test Example 1) (beet): 0 (Herbicidal ratio of 5% or lower (almost no effect))
g: rapeseed, effect on crop (criteria of Test Example 1) (rapeseed [6]): 3 (Herbicidal ratio of 40% or higher and lower than 70%)

CON=C(C)CC1CC(O)=C(c2c(C)cc(Br)cc2OC)C1=O (centres unmarked) [6-076, 2-(4-bromo-2-methoxy-6-methylphenyl)-3-hydroxy-5-{2-(methoxyimino)propyl}cyclopent-2-enone]
Herbicidal effect grade, A: Echinochloa oryzacola Vasing. [1]: 5 (Herbicidal ratio of 90% or more (almost completely withered))
Herbicidal effect grade, B: Scirpus juncoides (Scirpus juncoides): 1 (Herbicidal ratio of 5% or higher and lower than 20%)
effect on crop b (directly sowed rice plant), grade 0-5 [2]: 5 (Herbicidal ratio of 90% or more (almost completely withered))
I: Avena fatua, herbicidal effect grade (Avena fatua): 3 (Herbicidal ratio of 40% or higher and lower than 70%)
K: Lolium multiflorum Lam., herbicidal effect grade (Lolium multiflorum Lam.): 5 (Herbicidal ratio of 90% or more (almost completely withered))
L: Apera spica-venti, herbicidal effect grade (Apera spica-venti): 5 (Herbicidal ratio of 90% or more (almost completely withered))
N: Amaranthus retroflexus, herbicidal effect grade (Amaranthus retroflexus): 1 (Herbicidal ratio of 5% or higher and lower than 20%)
d: soybean, effect on crop grade (soybean): 0 (Herbicidal ratio of 5% or lower (almost no effect))
b: directly sowed rice plant, effect on crop grade (rice): 5 (Herbicidal ratio of 90% or more (almost completely withered))
e: wheat, effect on crop grade (wheat [3]): 0 (Herbicidal ratio of 5% or lower (almost no effect))
g: rapeseed, effect on crop grade (rapeseed [4]): 2 (Herbicidal ratio of 20% or higher and lower than 40%)
M: Abutilon theophrasti, herbicidal effect (criteria of Test Example 1) (Abutilon theophrasti): 5 (Herbicidal ratio of 90% or more (almost completely withered))
b: directly sowed rice plant, effect on crop (criteria of Test Example 1) (rice plant): 5 (Herbicidal ratio of 90% or more (almost completely withered))
e: wheat, effect on crop (criteria of Test Example 1) (wheat [5]): 5 (Herbicidal ratio of 90% or more (almost completely withered))
f: beet, effect on crop (criteria of Test Example 1) (beet): 0 (Herbicidal ratio of 5% or lower (almost no effect))
g: rapeseed, effect on crop (criteria of Test Example 1) (rapeseed [6]): 4 (Herbicidal ratio of 70% or higher and lower than 90%)
